Patent publication US20210155644A1, “CYCLOPENTENYL PURINE DERIVATIVE OR SALT THEREOF” (Fujifilm Corporation, priority 2018, published 2021)
Read-outs that look alike come from different tables or passages of the source.

System: adenovirus type 6 (ADV6)
Experiment: Evaluation of anti-adenovirus activity: CRL-11516 cells infected with ADV6, anti-hexon staining, count of stained cells
Assay type: cell-based
Method: A system in which CRL-11516 cells (available from ATCC) were infected with adenovirus type 6 (hereinafter, referred to as ADV6) was constructed, and a test for evaluating the anti-adenovirus activity of the compound according to the embodiment of the present invention and the compound of Comparative Example was carried out using the system. The test for evaluating the anti-adenovirus activity was carried out according to the method described below.
CRL-11516 cells were added to a 96-well plate at a cell density of 1×10^4 cells/well and cultured at 37° C. for 24 hours. After the culture was completed, the cell culture liquid was removed, and a serial dilution (100 μL) of the compound according to the embodiment of the present invention or the compound of Comparative Example was added. ADV6 (corresponding to 50TCID50) was added thereto, followed by culturing at 37° C. for 48 hours.
After the culture was completed, the infected cells were stained using Adeno-X Rapid Titer Kit (manufactured by Takara Bio Inc.). 100% methanol was added thereto and the cells were fixed at −20° C. for 10 minutes. The plate was washed three times with phosphate buffered saline (hereinafter, referred to as PBS) and then Mouse Anti-Hexon Antibody was added thereto, followed by incubation at 37° C. for 1 hour. After the incubation was completed, the plate was washed three times with PBS, and Rat Anti-Mouse Antibody was added thereto, followed by incubation at 37° C. for 1 hour. After the incubation was completed, a mixed staining solution of Stable Peroxidase Buffer:DAB Substrate=10:1 was added thereto, followed by incubation at room temperature for 10 minutes for staining of the cells.
The number of dark brown-stained cells was counted under a microscope, and the concentration of the test drug that reduces the dark brown-stained cells by 50% was defined as EC50. EC50 values were calculated for the triplicate test results, and a mean value and a standard deviation thereof were determined.

[1] = CRL-11516 cells infected with ADV6, 48 hours culture, concentration reducing dark brown-stained cells by 50%; read-out: Anti-AdV activity EC50

Molecule | EC50 [1] [nM] | EC50 (read-out: Anti-AdV activity EC50; CRL-11516 cells infected with ADV6, 48 hours culture, concentration reducing dark brown-stained cells by 50%) [nM]
Isopropyl ((((1S,4R)-4-(2-amino-6-methoxy- 9H-purin-9-yl)cyclopent-2-en-1- yl)methoxy)(naphthalen-1-yloxy) phosphoryl)-L-alaninate [Example 6-2-26] | 10 to 100 | –
COc1nc(N)nc2c1ncn2[C@H]1C=C[C@@H](COP(=O)(N[C@@H](CC(C)C)C(=O)OC(C)C)Oc2ccccc2)C1 (single isomer, unassigned) [Example 7-1-1] | 10 to 100 | –
COc1nc(N)nc2c1ncn2[C@H]1C=C[C@@H](COP(=O)(N[C@@H](C)C(=O)OC(C)C)Oc2ccc(Cl)cc2)C1 (single isomer, unassigned) [Example 4-8-1] | 10 to 100 | –
COc1nc(N)nc2c1ncn2[C@H]1C=C[C@@H](COP(=O)(OCCSC(=O)C(C)(C)C)Oc2ccccc2)C1 (stereo partly drawn) [Example 2-1, S-(2-(((((1S,4R)-4-(2-amino-6-methoxy-9H-purin-9-yl)cyclopent-2-en-1-yl)methoxy)(phenoxy)phosphoryl)oxy)ethyl) 2,2-dimethylpropanethioate] | – | < 10
COC(=O)[C@H](C)NP(=O)(OC[C@@H]1C=C[C@H](n2cnc3c(OC)nc(N)nc32)C1)Oc1ccccc1 (stereo partly drawn) [Example 2-2-16, Methyl ((((1S,4R)-4-(2-amino-6-methoxy-9H-purin-9-yl)cyclopent-2-en-1-yl)methoxy) (phenoxy)phosphoryl)-L-alaninate] | 10 to 100 | –
